Measurements reported in US20110098278A1 (priority 2009, published 2011).
Several values for one entry are separate records, joined by “and”; a condition that tells them apart may be missing. Identical values can stand only once. Entries after “also recorded” stand apart in the source; their conditions may differ. Counter-ions that a name gives are not always drawn.

Experiments:
[1] = system: Sprague Dawley rat; assay: PICA behavior (kaolin consumption) in the Sprague Dawley rat as surrogate for emesis; format: in vivo; settings: for Cumulative mean ± SD kaolin consumption: 40 mg base/kg po
Procedure: This is a well established model for this purpose in the rat (Takeda N et al (1993) 45 817-21).
Once determined, a comparison was made of the effects of these doses on kaolin consumption over a 0-96 hour period in 24 h increments.
In detail groups of 10 male Sprague Dawley rats were habituated to kaolin for 3 days, then singly housed in grid-bottomed cages and habituated for a further 2 days prior to dosing. On the day of drug administration, the animals were food-deprived for 1 h prior to dosing. […] Access to a weighed quantity of food and kaolin was then restored. Food and kaolin was weighed 24, 48, 72 and 96 h after dosing.

[2] = system: human stomach circular smooth muscle; assay: Ex vivo human stomach circular smooth muscle, electrical field stimulation; format: cell-based; settings: human stomach strips under EFS; 100 nM to 100 μM
[3] = Local galantamine concentration within the stomach after a typical dose; settings: following a typical 24 mg dose
[4] = system: rat; assay: Comparative acute toxicity (rat behavior) of sc and po galantamine; format: in vivo; settings: individual rats
[5] = system: ferret; assay: Emetic activity (retching and vomiting) in the ferret
[6] = system: rabbit stomach circular smooth muscle; assay: Ex vivo rabbit stomach circular smooth muscle, electrical field stimulation; format: cell-based; settings: rabbit stomach strips under EFS; 100 nM to 100 μM
[7] = 20 mg (free base)/kg oral or similar molar dose
[8] = 20 mg/kg p.o., 2 hr. observation, individual ferrets, listed as Galantamine HBr, hydrobromide

## COc1ccc2c3c1O[C@H]1C[C@@H](O)C=C[C@@]31CCN(C)C2 [Galantamine, (4aS,6R,8aS)-4a,5,9,10,11,12-hexahydro-3-methoxy-11-methyl-6H-benzofuro[3a,3,2ef][2]benzazepin-6-ol hydrobromide]
[1]; 3.5 mg/kg subcutaneous, over the whole 96 h period
  kaolin consumption compared with controls (in words): no increase at all in kaolin consumption
[1]; 24 h
  Cumulative mean ± SD kaolin consumption: 2.73 ± 1.4 g
[1]; 48 h
  Cumulative mean ± SD kaolin consumption: 3.36 ± 1.68 g
[1]; 72 h
  Cumulative mean ± SD kaolin consumption: 4.07 ± 1.88 g
[1]; 96 h, hydrobromide
  Cumulative mean ± SD kaolin consumption: 4.69 ± 2.43 g
[1]; 96 h, listed as galantamine, hydrobromide
  Cumulative mean ± SD kaolin consumption: 4.69 ± 2.43 g
[1]; 40 mg/kg oral, over 96 h, hydrobromide
  kaolin consumption / PICA behavior (in words): significantly higher; also recorded: marked PICA behavior
[1]; single oral dose 40 mg base/kg, Mean
  rat kaolin consumption (g) over 24 h post-dose: 1.79 g
[1]; single oral dose 40 mg base/kg, individual rats 1-10, hydrobromide
  rat kaolin consumption (g) over 24 h post-dose: 1.06 g and 0.35 g and 0.02 g and 3.14 g and 4.47 g and 1.62 g and 0.16 g and 2.93 g and 3.11 g and 1.03 g
[1]; single subcutaneous dose of 3.5 mg base/kg, Mean (rat 7 omitted as outlier)
  rat kaolin consumption (g) over 24 h post-dose: 0.25 g
[1]; single subcutaneous dose of 3.5 mg base/kg, individual rats 1-10, hydrobromide
  rat kaolin consumption (g) over 24 h post-dose: 0.67 g and 0.36 g and 0.88 g and 0.08 g and *1.57 g and 0.00 g (3×) and 0.21 g and 0.05 g
[2]
  stimulation of smooth muscle contractions (change in force production): evidence of a dose response
[3]
  Local concentrations within the stomach: 200 to 400 µM
[4]; 3.5 mg/kg sc, 2 min post dose, hydrobromide
  Effect on rat behavior: Rat 1: purposeless chewing, mouth; also recorded: Rat 3: purposeless chewing, mouth
[4]; 3.5 mg/kg sc, 5 min post-dose, hydrobromide
  Effect on rat behavior: Rat 1: purposeless chewing, mouth movements,; also recorded: Rat 3: As per 2 min
[4]; 3.5 mg/kg sc, 10 min post-dose, hydrobromide
  Effect on rat behavior: Rat 1: Tremors, flattened rostral body; also recorded: Rat 3: purposeless chewing, mouth
[4]; 3.5 mg/kg sc, 20 min post-dose, hydrobromide
  Effect on rat behavior: Rat 1: Quiescent, flattened body posture,; also recorded: Rat 3: Some ambulation restored symptoms
[4]; 3.5 mg/kg sc, 30 min post-dose, hydrobromide
  Effect on rat behavior: Rat 1: Quiescent, flattened body posture,; also recorded: Rat 3: Some ambulation restored
[4]; 3.5 mg/kg sc, 45 min post-dose
  Effect on rat behavior: Rat 1: food consumption and more
[4]; 3.5 mg/kg sc, 1 h, hydrobromide
  Effect on rat behavior: Rat 1: Normal; also recorded: Rat 3: Normal
[4]; 40 mg/kg po, 10 min post-dose, hydrobromide
  Effect on rat behavior: Rat 6: Quiescent, purposeless; also recorded: Rat 7: Quiescent, purposeless chewing,
[4]; 40 mg/kg po, 20 min post-dose, hydrobromide
  Effect on rat behavior: Rate 6 as per 10 min + arching; also recorded: Rat 7: grooming + purposeless
[4]; 40 mg/kg po, 30 min post-dose
  Effect on rat behavior: Rat 6: quiescent, purposeless chewing,
[4]; 40 mg/kg po, 45 min post-dose, hydrobromide
  Effect on rat behavior: Rat 6: flattened body posture, chewing,; also recorded: Rat 7: grooming, sawdust consumption
[4]; 40 mg/kg po, 1 h, hydrobromide
  Effect on rat behavior: Rat 6: flattened body posture, tremor; also recorded: Rat 7: Grooming, sawdust
[4]; 40 mg/kg po, 1.5 h, hydrobromide
  Effect on rat behavior: Rat 7: quiet, falttened posture
[4]; 40 mg/kg po, 2 h, hydrobromide
  Effect on rat behavior: Rat 6: much improved; also recorded: Rat 7: much improved
[4]; 40 mg/kg po, 3 h, hydrobromide
  Effect on rat behavior: Rat 6: normal; also recorded: Rat 7: normal
[5]; [7]
  animals dosed that retched: 55%
  animals dosed that vomited: 40%
[5]; 20 mg/kg p.o. (galantamine free base content), 2 hr. observation, individual ferrets, listed as Galantamine HBr, hydrobromide
  Total number of individual incidences of: Retching: 21 and 29 and 18 and 0 (9×) and 31 and 3 (2×) and 6 and 2 and 5 and 13 and 22
[5]; [8]
  Time (min) to onset of: Retching: 33 min and 3 min and 5 min (3×) and >120 min (8×) and 41 min and 11 min and 10 min and 7 min (2×) and 6 min (2×)
  Time (min) to onset of: Vomiting: 33 min and 75 min and 5 min (2×) and >120 min (11×) and 37 min and 10 min and 13 min and 6 min and 41 min
  Total number of individual incidences of: Vomiting: 4 (2×) and 1 (6×) and 0 (11×) and 2
[6]
  stimulation of smooth muscle contractions (change in force production): evidence of a dose response
